Laboratory results reported in US20140378513A1, “USE OF FUNGICIDES IN LIQUID SYSTEMS” (priority 2011, published 2014).

How the values were obtained:
pest FD100 = assay: 200,000 liter outdoor desmid pond P08, qPCR monitoring and treatment; set-up: species or system chytrid FD100
Protocol: A 200,000 liter outdoor pond located in Las Cruces, N. Mex. is inoculated with a desmid strain at an initial OD (750 nm) of ˜0.15 (pond P08). Growth of the microalgae is monitored daily by measuring the ash free dry weight of the culture. PCR monitoring is performed daily to detect the presence of pests.
Initially, the Ct value for the pest is above the threshold of Ct=30 until day 15 (See, FIG. 14). The measured Ct observed for pest FD100 monitoring stays below Ct=30 and indicates a need for crop protective action. On day 18 post-inoculation, fluazinam is added at a concentration of 0.5 ppm. Daily monitoring is continued and the Ct observed for pest FD100 increases above the Ct=30 threshold and remains above the threshold through day 38.
Successful culture depends on the timely identification of a pest. On day 30, in response to a decrease in optical density of the culture, 1 ppm of pyraclostrobin is added.

[1] = tested on: Pest in infected Scenedesmus dimorphus culture; assay: Fungicide efficacy on pest control in infected microalgae culture; type: cell-based; conditions: for Rating: rating scale of 0 to 3 by percent efficacy; for Scenedesmus dimorphus efficacy: first trial
Text: Failure to treat an infected culture results in the collapse and loss of the microalgae culture. […] Test fungicides are graded on a rating scale of 0 to 3 where a score of 0 represents an efficacy of between 0 and 25%, a score of 1 represents an efficacy of between 26 and 50%, a score of 2 represents an efficacy of between 51 and 75% and a score of 3 represents an efficacy of between 76 and 100%.

microalgae = assay: Ranges of microalgae toxicity (serial dilution of fungicide in growing culture); conditions: range in which fungicide begins to show growth effects on microalgae
Text: The present disclosure provides for the introduction of fungicides at an effective concentration. Effective concentrations may be determined according to manufacturer's instructions or may be determined empirically. An effective concentration of a fungicide is not toxic to the microalgae being cultured in the liquid system. Methods to determine toxicity are known in the art and include serial dilutions of a test fungicide in a growing liquid culture of microalgae. One of skill in the art would understand that different microalgae may have different ranges of toxicity that may be determined by growth of a microalga in the presence of a serial dilution of a fungicide.
Algae are screened for sensitivity to chemicals by preparing 180 ml of a log phase culture. The log phase culture is transferred into a 96 well microtiter plate at an absorbance at 750 nm (OD750 or A750) of ˜0.2. Twenty microliters of media is provided into the top row as a negative control, the middle six rows receive a 20 microliter dilution, which is a 10 fold dilution of the chemical at each transfer, of the chemical across an appropriate concentration gradient, and the bottom row receives 20 microliter of the solvent used to solubilize the pesticide alone as a control. The total volume per well is 200 μl. Each chemical is tested in triplicate. The growth of the algae is tracked daily by measuring the A750. After 8 days, the growth rate of the algae is measured by fitting the growth curve to a log model and deriving the maximum growth rate (r). The impact of the chemical is calculated by comparing the r of the algae at various dilutions of the pesticide to the control.

Desmid species = assay: Algae sensitivity screen, 96 well, growth rate by A750 over 8 days; type: cell-based
Protocol: (§1) The total volume per well is 200 μl. Each chemical is tested in triplicate.

Scenedesmus species = assay: as above; type: cell-based
Protocol: as §1

Scenedesmus dimorphus = assay: as above; type: cell-based
Protocol: as §1

chytrid pest = assay: Outdoor ponds P16 and PA6 with or without fluazinam treatment
Protocol: Monitoring for chytrid pest and microalgae growth is performed as described in the examples above. In Pond 16 (P16), a signal for the presence of a chytrid pest is detected beginning on Day 8 using the universal primer pair to the methyltransferase gene (SEQ ID NOs: 30 and 31) and to the ITS gene (SEQ ID NOs: 32 and 33). At this point, 400 liters of P16 are inoculated into Pond A6 (PA6). Continuous detection of the presence of chytrid in pond P16 and A6, indicates a need for crop protection and 0.5 ppm of fluazinam is added on Day 11 to P16 but not PA6. Monitoring of the growth of microalgae is continued in both Pond 16 and Pond A6 using total organic carbon (TOC), OD(750), fluorescence, and a FlowCAM®.

[2] = tested on: desmid strain (UTEX 1237); assay: Growth of uncontaminated laboratory microalgae culture with fungicide (OD 750 nm); type: cell-based; conditions: UTEX 1237, 32° C., OD 750 nm daily
Protocol: (§2) A desmid strain (UTEX 1237) is inoculated into 1 ml of media at an initial A750 of 0.15. […] These cultures are monitored daily for growth by measuring the optical density of the culture at 750 nm. If pests are detected, their genomic DNA is quantitated at the beginning and end of the experiment using the methods presented above. […]
as §2, with “into 1.0” for “into 1”, “media IABR6” for “media”, “initial OD (A750)” for “initial A750”
as §2, with “OD (750 nm)” for “A750”, “in these cultures” for “detected,”, “experiment.” for “experiment using the methods presented above.”

[3] = tested on: chytrids known to infect the strain (desmid UTEX 1237); assay: Growth of chytrid-inoculated microalgae culture with fungicide (OD 750 nm); type: cell-based
Protocol: Microalgae cultures are prepared as described above and further inoculated with chytrids known to infect the strain, grown, and monitored as described above. […] In contrast, contaminated cultures grown in the presence of 250 ppb or higher concentrations of fluazinam are not affected by the presence of added chytrid. Fluazinam at a concentration of 100 ppb results in a stabilization of microalgae density at 0.8 ODU which is about 4 times the density of microalgae grown in the absence of fluazinam.
(§3) Microalgae cultures are prepared as described above and further inoculated with chytrids known to infect the strain, grown and monitored as described above. […] In contrast, contaminated cultures grown in the presence of 1 ppm or higher concentrations of Headline® are not affected by the presence of added chytrid contaminant. Headline® at a concentration of 0.5 ppm results in a stabilization of microalgae density at about 0.3 ODU which is about 2 times the density of microalgae grown in the absence of Headline®.
as §3, with “2” for “1”, “Thiram®” for “Headline®”, “1.0” for “0.5”, “0.8” for “0.3”, “4” for “2”, “Thiram®.” for “Headline®.”

[4] = Tetradesmus dimorphus, read-out: Scenedesmus dimorphus efficacy
[5] = log phase culture, 10 fold dilutions
[6] = fluazinam 100 ppb, contaminated culture
[7] = log phase culture, 10 fold dilutions, 8 days

SMILES: COC(=O)N(OC)c1ccccc1COc1ccn(-c2ccc(Cl)cc2)n1 [pyraclostrobin, methyl N-[2-[[[1-(4-chlorophenyl)-1H-pyrazol-3-yl]oxy]methyl]phenyl]-N-methoxycarbamate]
- culture outcome after second fungicide (pest FD100; 1 ppm added on day 30 after decrease in optical density): the culture collapses
- activity at 2 ppm [1, 4]: 66%
- Rating [1]: 2 (a score of 2 represents an efficacy of between 51 and 75%)
- Ranges of Microalgae toxicity (microalgae): >15 ppm

SMILES: CCCOC/C(=N\c1ccc(Cl)cc1C(F)(F)F)n1ccnc1 [triflumizole]
- Rating [1]: 0 (a score of 0 represents an efficacy of between 0 and 25%)
- Desmid species toxicity (Desmid species; Desmid species): 1.563-6.25 ppm
- Scenedesmus species toxicity (Scenedesmus species; Scenedesmus species, 8 days): 1.563-6.25 ppm
- Scenedesmus dimorphus toxicity (Scenedesmus dimorphus; Scenedesmus dimorphus): 1.563-6.25 ppm
- Ranges of Microalgae toxicity (microalgae): 1.563-6.25 ppm

SMILES: CC(Cc1ccc(C(C)(C)C)cc1)CN1CCCCC1 (stereo not shown) [fenpropidin, 1-[3-(4-tert-butylphenyl)-2-methylpropyl]piperidine]
- positive efficacy in a first trial confirmed in a second trial ([1]; Table 6): not confirmed
- activity at 0.8 ppm [1, 4]: 18.5%
- Rating [1]: 0 (a score of 0 represents an efficacy of between 0 and 25%)
- Desmid species toxicity (Desmid species; [5]): 0.031-0.125 ppm
- Scenedesmus species toxicity (Scenedesmus species; cell marked (ppb)): 0.488-1.953 ppb
- Scenedesmus dimorphus toxicity (Scenedesmus dimorphus; [5]): 0.00195-0.0078 ppm
- Ranges of Microalgae toxicity (microalgae): 0.00195-1.953 ppm

SMILES: O=[N+]([O-])c1cc(C(F)(F)F)c(Cl)c([N+](=O)[O-])c1Nc1ncc(C(F)(F)F)cc1Cl [fluazinam, 3-chloro-N-[3-chloro-2,6-dinitro-4-(trifluoromethyl)phenyl]-5-(trifluoromethyl)-2-pyridinamine]
- Ct observed for pest FD100 after treatment (pest FD100; 0.5 ppm added day 18 post-inoculation, through day 38): > 30
- growth of microalgae in treated pond (chytrid pest; 0.5 ppm added on Day 11 to P16, untreated PA6 collapses): Logarithmic growth continues
- fraction of infected cells after treatment (chytrid pest; 0.5 ppm, pond P16, increases in untreated PA6): stabilizes or decreases
- activity at 0.8 ppm [1, 4]: 67%
- Rating [1]: 2 (a score of 2 represents an efficacy of between 51 and 75%)
- concentrations that do not significantly affect the growth of the uncontaminated microalgae culture [2]: up to 2 ppm
- concentration at which contaminated cultures are not affected by the presence of added chytrid ([3]; UTEX 1237 inoculated with chytrids): ≥ 250 ppb
- density relative to microalgae grown in the absence of fungicide [3, 6]: about 4 times
- stabilization of microalgae density [3, 6]: 0.8 ODU
- Ranges of Microalgae toxicity (microalgae): >7.5 ppm

SMILES: Cc1ccc(N(SC(F)(Cl)Cl)S(=O)(=O)N(C)C)cc1 [tolylfluanid, N-[dichloro(fluoro)methyl]sulfanyl-N-(dimethylsulfamoyl)-4-methylaniline]
- Scenedesmus dimorphus efficacy ([1]; 5 ppm, result in words): 5 ppm Delayed Crash
- Rating [1]: 0 (a score of 0 represents an efficacy of between 0 and 25%)
- Desmid species toxicity (Desmid species; Desmid species): 6.25-25.0 ppm
- Scenedesmus species toxicity (Scenedesmus species; Scenedesmus species, 8 days): 6.25-25.0 ppm
- Scenedesmus dimorphus toxicity (Scenedesmus dimorphus; Scenedesmus dimorphus): 1.56-6.25 ppm
- Ranges of Microalgae toxicity (microalgae): 1.56-25.0 ppm

SMILES: O=C1C2CC=CCC2C(=O)N1SC(Cl)(Cl)Cl (stereo not shown) [captan]
- Rating [1]: 0 (a score of 0 represents an efficacy of between 0 and 25%)
- Desmid species toxicity (Desmid species; [5]): 31.25-125 ppm
- Scenedesmus species toxicity (Scenedesmus species; [7]): 31.25-125 ppm
- Scenedesmus dimorphus toxicity (Scenedesmus dimorphus; [5]): 1.953-7.813 ppm
- Ranges of Microalgae toxicity (microalgae): 1.953-125 ppm

SMILES: CON=C(Cc1cccnc1)c1ccc(Cl)cc1Cl [pyrifenox]
- Scenedesmus dimorphus efficacy ([1]; result as symbol): (+/−)
- Rating [1]: 0 (a score of 0 represents an efficacy of between 0 and 25%)
- Desmid species toxicity (Desmid species; [5]): 0.004-0.0156 ppm
- Scenedesmus species toxicity (Scenedesmus species; [7]): 0.039-0.156 ppm
- Scenedesmus dimorphus toxicity (Scenedesmus dimorphus; [5]): 0.039-0.156 ppm
- Ranges of Microalgae toxicity (microalgae): 0.004-0.156 ppm

SMILES: O=C(Nc1ccccc1)N(Cc1ccc(Cl)cc1)C1CCCC1 [pencycuron]
- Rating [1]: 0 (a score of 0 represents an efficacy of between 0 and 25%)
- Desmid species toxicity (Desmid species; [5]): 3.125-12.5 ppm
- Scenedesmus species toxicity (Scenedesmus species; [7]): 0.781-3.125 ppm
- Scenedesmus dimorphus toxicity (Scenedesmus dimorphus; [5]): 3.125-12.5 ppm
- Ranges of Microalgae toxicity (microalgae): 0.781-12.5 ppm

SMILES: CNC(=O)/C(=N/OC)c1ccccc1COc1cc(C)ccc1C [dimoxystrobin]
- Rating [1]: 0 (a score of 0 represents an efficacy of between 0 and 25%)
- Desmid species toxicity (Desmid species; [5]): 0.004-0.0156 ppm
- Scenedesmus species toxicity (Scenedesmus species; [7]): 0.0156-0.0625 ppm
- Scenedesmus dimorphus toxicity (Scenedesmus dimorphus; [5]): 0.0156-0.0625 ppm
- Ranges of Microalgae toxicity (microalgae): 0.004-0.0625 ppm

SMILES: Cc1ccc(-c2c(Cl)nc(C#N)n2S(=O)(=O)N(C)C)cc1 [cyazofamid]
- Rating [1]: 0 (a score of 0 represents an efficacy of between 0 and 25%)
- Desmid species toxicity (Desmid species; Desmid species): 0.125-0.500 ppm
- Scenedesmus species toxicity (Scenedesmus species; Scenedesmus species, 8 days): 0.03125-0.125 ppm
- Scenedesmus dimorphus toxicity (Scenedesmus dimorphus; Scenedesmus dimorphus): 0.03125-0.125 ppm
- Ranges of Microalgae toxicity (microalgae): 0.03125-0.125 ppm
